Source: patent publication US20090054333A1, “Peptide inhibitors of cyclin-dependent kinase activity and uses thereof” (priority 2006, published 2009)
“Also recorded” adds a separate entry of the source.

B1: Spacer: full-length pRb2/p130 spacer domain, amino acids 616-828 (SEQ ID NO:20) (protein, listed as Homo sapiens)
chain: VPTCEEVMPPQNLERADEICIAGSPLTPRRVTEVRADTGGLGRSITSPTTLYDRYSSPPASTTRRRLFVENDSPSDGGTPGRMPPQPLVNAVPVQNVSGETVSVTPVPGQTLVTMATATVTANNGQTVTIPVQGIANENGGITFFPVQVNVGGQAQAVTGSIQPLSAQALAGSLSSQQVTGTTLQVPGQVAIQQISPGGQQQKQGQSVTSSSN

What was measured:
NIH/3T3 cells = assay: colony formation assay; assay type: cell-based; settings: NIH/3T3 transfected with 5 μg pEF6/V5 construct; blasticidin S selection; colonies counted after eight days
Method: Colony formation assay: The effects of the pRb2/p130 spacer domain and 39 aa small peptide overexpression on cellular growth was examined by colony formation assays. Exponentially growing NIH/3T3 cells were seeded in 100-mm dishes at a density of 5×10^5 cells per 100 mm dish the day before transfection. Cells were transfected with 5 μg of pEF6/V5-spacer, pEF6/V5-Spa310 or the control vector pEF6/V5 carrying the brasticidin S-resistant gene (bsr) as a selectable marker gene. For selection, blasticidin S hydrochloride (Funakoshi, Tokyo, Japan) was added to the culture medium 48 h after transfection, at a final concentration of 10 μg/mL. After 6 days, 1×10^3 of blasticidin S-resistant cells in each well were plated in triplicate in 60-mm dishes, in order to evaluate their colony-forming ability. Cells were then incubated at 37° C. for eight days in a selecting medium containing blasticidin S hydrochloride at a final concentration of 10 μg/mL. Colonies, defined as groups of a minimum of 50 cells, were counted after staining with 2% methylene blue in 95% ethanol.
As presented in FIGS. 4a and 4b, the spacer region caused a decrease on the ability of the cells to form colonies of about 50% and the Spa310 of about 60%. […] After six days, an equal number of resistant cells were plated in 60-mm dishes and colony-forming ability was evaluated after eight days of continuous selection. […]

cdk2 = assay: in vitro cdk2 kinase assay with GST-fusion proteins, histone H1 substrate; assay type: biochemical; design: key to Kinase assay (inhibitory effect on cdk2 activity): P=positive; N=negative; settings: for Kinase assay (inhibitory effect on cdk2 activity): 0.1 μg GST-fusion protein, cdk2 immunoprecipitated from NIH/3T3; for inhibitory effect on cdk2 activity / histone H1 phosphorylation in vitro: GST-fusion protein added to cdk2 immunoprecipitate from NIH/3T3
Method: Constructs preparation: A prokaryotic expression vector pGEX-2T (Stratagene Inc., La Jolla Calif.) and polymerase chain reaction (PCR) were used to generate chimeric Glutathione-S-Transferase constructs. The primers used by PCR to amplify the fragments that were subcloned in the pGEX-2T were derived from the 5′ and 3′ ends of different regions of the spacer domain of […]. The mammalian expression vector pEF6/V5-His TOPO (Invitrogen Corp, Carlsbad, Calif.) was used to generate the constructs pEF6/V5-His-spacer and pEF6/V5-His-310 that express the correspondent genes with a C-terminal V5 epitope. The spacer and the 310 fragments were PCR-amplified with the respective primers (Table 1) to generate 3′ends of the cDNAs without stop codons and were subsequently subcloned into pEF6/V5-His TOPO (Invitrogen Corp, Carlsbad, Calif.) according to the manufacturer's instructions to obtain cDNAs coding for C-terminal fusion proteins. All generated constructs were confirmed by automated sequencing. Information regarding the primers is available upon request.
GST Fusion protein preparation: XL1-Blue bacteria carrying the pGEX-2T vectors were grown to mid log phase and then induced to express protein by adding 0.25 mM of isopropyl-1-thio-β-D-galactopyranoside (IPTG, Roche Applied Science, Indianapolis, Ind.). The cultures were shaken for 4 h; bacteria were then pelleted and resuspended in NENT buffer (20 mM Tris pH 8, 100 mM NaCl, 1 mM EDTA, 0.5% NP-40). Cell suspensions were sonicated, pelleted and the supernatant collected. The remaining bacteria were then resuspended in NENT buffer plus 2% of N-Lauryl-Sarcosine, pelleted and the supernatants were collected again. The combined supernatants were incubated with Glutathione agarose (Amersham Biosciences, Piscataway, N.J.) overnight at 4° C. The agarose was then pelleted and washed three times in NENT buffer.
Kinase assays: Cell lysates from NIH/3T3 were prepared by resuspending pelleted cells in 500 μl of lysis buffer (50 mM Tris, 5 mM EDTA, 250 mM NaCl, 50 mM NaF, 0.1% Triton, 0.1 mM Na3VO4, plus protease inhibitors). An equal amount of protein for each fraction (100 μg) was immunoprecipitated with a polyclonal anti-cdk2 antibody (De Luca et al., 1997, J Biol Chem, 272, 20971-4). The complexes were pulled down with protein A-Sepharose and washed three times with lysis buffer and twice with lysis buffer containing 400 mM NaCl. The complexes were equilibrated in kinase assay buffer (20 mM HEPES pH 7.4, 10 mM MgAc, […], 1 mM DTT). In order to detect the in vitro inhibition of cdk2 activity, each sample was incubated with an equal amount (0.1 μg) of each pGEX-2T fusion protein, in a final volume of 20 μl of kinase buffer, using 5 μCi/sample of γ-ATP (Amersham Biosciences, Piscataway, N.J.) and 2 μg of Histone H1 for 30 minutes at 30° C. Kinase assays were repeated at least three times, giving an inter assay standard deviation within 10% after normalization for protein amount. In order to evaluate the in vivo inhibition of cdk2 activity, cdk2 was immunoprecipitated, as described above, from NIH/3T3 cells transiently transfected with 5 μg of pEF6/V5-spacer, pEF6/V5-Spa310 or the vector alone as a control. The immunocomplexes were split in two tubes. A half of each sample was assayed for cdk2 activity in a final volume of 20 μl of kinase buffer with 5 μCi/sample of γ-ATP and 2 μg of Histone H1 for 30 min. at 30° C.; the second one was tested in western blot analysis to confirm that all the samples contained the amount of cdk2 immunoprecipitated. Briefly the samples were separated into 12% SDS polyacrylamide gels (SDS-PAGE), and then transferred into a nitrocellulose membrane (Schleicher & Schuell, Germany). The membrane was blocked with 5% non-fat dry milk in 1×TBST and incubated with the polyclonal anti-cdk2 antibody described above. […]

| Molecule | decrease on the ability of the cells to form colonies (NIH/3T3 cells) | Kinase assay (inhibitory effect on cdk2 activity) (cdk2) | inhibitory effect on cdk2 activity / histone H1 phosphorylation in vitro (cdk2) |
| --- | --- | --- | --- |
| Spa310: pRb2/p130 amino acids 641-679 (39 amino acids long), SEQ ID NO:3; LTPRRVTEVRADTGGLGRSITSPTTLYDRYSSPPASTTR (listed as Homo sapiens) | about 60% | P | able to maintain the specific inhibitory ability; also recorded: strongly and similarly inhibited cdk2 activity |
| B1 | about 50% | P | strongly and similarly inhibited cdk2 activity |
